Results on three compounds are retold here after US9676774B2, “Compounds and compositions for treatment of cancer” (Sunesis Pharmaceuticals, Inc., priority 2006, dated 2017).

Structures are written as SMILES. Some results are limits rather than exact numbers.

The nature of series [1]: In vitro reaction of SNS-595 with pooled human liver microsomes (product identification). It is filed as in vitro ADME. The settings on record: for product formed from SNS-595 in liver microsomes: human liver microsomes 1 mg/mL, 10 or 100 μM SNS-595, 60 min, 37° C., NADPH. How it is done:
The in vitro production of N-Desmethyl SNS-595 from SNS-595 was monitored as described herein. The pooled Human Liver Microsomes were obtained from BD Gentest and NADPH was obtained from Sigma.
The in vitro reactions were performed (a) in the presence of NADPH as a cofactor and (b) in the absence of NADPH to identify any SNS-595 derivatives generated by cofactor independent mechanisms.
The reaction mixture constituted 100 mM Sodium Phosphate buffer, pH 7.4, containing 3.3 mM MgCl2, 1 mg/mL liver microsomal protein, 10 or 100 μM SNS-595, and 1 mM NADPH for reaction with NADPH. In both the NADPH plus and minus reactions, SNS-595 was added to the reaction mixture and allowed to equilibrate to 37° C. for 10 minutes before starting the reaction by adding NADPH or an equivalent volume of buffer. Reactions were performed in a volume of 1 mL in 2 mL 96-well polypropylene assay blocks. The reaction was stopped by adding an equal volume of acetonitrile at both 0 and 60 minutes after initiating the reaction. Samples were placed on ice until centrifugation at 4100 g for 10 minutes to remove proteins for subsequent analysis.
SNS-595 and the reaction products were identified on an API 4000 mass spectrometer coupled to a turbo electro spray ionization source. Prior to MS analysis chromatography was performed to achieve separation of the reaction precuts (N-desmethyl-SNS-595 had the […] SNS-595). The HPLC system consisted of an Agilent 1100 binary pump and single wavelength UV/Vis as a detector, and a Phenomenex Synergi Hydro-RP column (150×2 mm, 4 micron, 80 Å particle size). Following column separation, UV spectra were collected at 350 nm before mass spectral analysis. Mass spectral identification of the reaction products was done using a series of three experiments; MS full scan, product ion scans on all reaction products identified in the MS full scan analysis as well as multiple reaction monitoring (MRM) or product ion scans on theoretically possible reaction products. […]
In general terms: Microsomes from liver hold many membrane-bound enzymes, among them those of drug oxidation.

A further series deals with HCT-116 cells. The series is described as follows: MTT cell viability (cytotoxicity) assay in HCT-116 cells. The format is cell-based. The note with it: Homo sapiens, 72 hours incubation, highest concentration 5 μM, read-out: IC50 (reduced cell viability). How it is done: MTT Dye Solution: 5 mg/mL MTT dye (Sigma #M2128) in sterile PBS, filter sterilized, stored at 4° C. in a dark bottle no longer than 1 month.
Lysis Buffer: 50% N,N-dimethyl formamide (Aldich #31,993-7) in dH20, 20% w/v lauryl sulfate (added with stirring at 37° C.) (Sigma #L4509), adjusted pH to 4.7 with 2.5% of 80% acetic acid (Fisher #A490-212) and 2.5% 1 N HCl (Spectrum #HY105).
Supplemented RPMI media: 500 mL RPMI (Cellgro #10-040-CV), 10% FBS (Cellgro #35-011CV) and 1% Sodium Bicarbonate solution (Cellgro @35-035-CI), 1% Antibotic Solution (100× stock; Cellgro #30-004CI).
HCT-116 cells were purchased from ATTC (#CCL-247).
Background: No cells, Totals: Cells treated with DMSO only
96-well tissue culture-treated flat bottom plates (Costar #3595) were plated with 4000 trypsinized cells in 100 μL/well and incubated overnight. 100× stock concentrations of compounds were prepared in DMSO and serially diluted two-fold in DMSO in a 96-well polypropylene v-bottom plate (Costar #3363). 5 μL of DMSO dilutions were then added to 45 μL supplemented RPMI, and 10 μL/well of this mixture were added to plates containing HCT-116 cells. The highest concentration of compounds was 5 μM. Plates were incubated for 72 hours at 37° C. in an incubator (5% CO2).
After incubation, 20 μL of MTT solution were added to each well and incubated at 37° C. for 1.5 hour. 100 μL lysis buffer was then added and plates were incubated for 48 hours at 37° C. Cell viability was then recorded by absorbance at 595 nm using a Biorad Benchmark Microplate Reader. The fraction of dead cells was determined by Fraction of Dead cells=Absorbance of sample well−Avg(no cell control)/Avg(Absorbance of DMSO only Control)−Avg(no cell control).

What is called IC50 is the concentration needed to halve the response being measured. Take `CO[C@H]1CN(c2ccc3c(=O)c(C(=O)O)cn(-c4nccs4)c3n2)C[C@@H]1N` [N-desmethyl-SNS-595, (+)-1,4-dihydro-7-[(3S,4S)-3-methoxy-4-amino-1-pyrrolidinyl]-4-oxo-1-(2-thiazolyl)-1,8-naphthyridine-3-carboxylic acid]: the “product formed from SNS-595 in liver microsomes” value in series [1] is on record as “predominant product formed”. In series [1] (human liver microsomes, 10 μM incubation concentration of SNS-595), the “product detectable after incubation of SNS-595 in liver microsomes” value is recorded as “only product detectable”. Moreover, in the series on HCT-116 cells, the IC50 was found to be 0.507 µM.

`CN[C@H]1CN(c2ccc3c(=O)c(C(=O)O)cn(-c4nccs4)c3n2)C[C@@H]1O` [O-desmethyl-SNS-595, (+)-1,4-dihydro-7-[(3S,4S)-3-hydroxy-4-methylamino-1-pyrrolidinyl]-4-oxo-1-(2-thiazolyl)-1,8-naphthyridine-3-carboxylic acid]: the “product formed from SNS-595 in liver microsomes” value in series [1] was “second product formed”. Further, in the series with HCT-116 cells, the IC50 was greater than 5 µM.

With `CN[C@H]1CN(c2ccc3c(=O)c(C(=O)O)cn(-c4nccs4)c3n2)C[C@@H]1OC` [SNS-595, (+)-1,4-dihydro-7-[(3S,4S)-3-methoxy-4-(methylamino)-1-pyrrolidinyl]-4-oxo-1-(2-thiazolyl)-1,8-naphthyridine-3-carboxylic acid], the IC50 in the series on HCT-116 cells is 0.425 µM.
